Values quoted from earlier work in Sander's compilation of Henry's law constants (doi:10.1007/978-94-007-2275-0).

Assay: Henry solubility constant Hcp at 298.15 K (mol/(m3 Pa))
Conditions: reference: Warneck and Williams (2012); cited value

In order of rising “Henry solubility constant Hcp” value:
1. FC(F)(F)F [tetrafluoromethane]  2.1e-06
2. FS(F)(F)(F)(F)F [sulfur hexafluoride]  2.4e-06
3. [C-]#[O+] [carbon monoxide]  9.7e-06
4. O=O [oxygen]  1.2e-05
5. [Ar] [argon]  1.4e-05
6. [N]=O [nitrogen monoxide]  1.9e-05
7. FC(F)(Cl)Cl [dichlorodifluoromethane]  3e-05
8. [O]N=O [nitrogen dioxide]  9.9e-05
9. O=C=S [carbon oxide sulfide]  0.00021
10. [N-]=[N+]=O [dinitrogen monoxide]  0.00024
11. S=C=S [carbon disulfide]  0.00061
12. CSC [dimethyl sulfide]  0.0056
13. CC(=O)OO[N+](=O)[O-] [peroxyacetyl nitrate]  0.029
14. COO [methyl hydroperoxide]  2.9
15. OO [hydrogen peroxide]  910
